From PMC9551036, “A selective and orally bioavailable VHL-recruiting PROTAC achieves SMARCA2 degradation in vivo” (Nature Communications, 2022)
Where “and” joins values, the source holds several entries; their conditions need not be identical. Identical values can stand only once. Like-named read-outs stand apart in the source and are kept apart here.

Legend:
[1] = molecular target: T1, SMARCA4 (Homo sapiens, UniProt P51532); experiment: SMARCA4 capillary electrophoresis protein assay in RKO cells; assay type: cell-based; set-up: endogenous in cells; host or cells: RKO, HCT116, LU99, HCC-364, HCT-15, HCC4006, SK-N-AS; details: mean ± SD; for Dmax: RKO
T1 sequence (P51532 whole entry): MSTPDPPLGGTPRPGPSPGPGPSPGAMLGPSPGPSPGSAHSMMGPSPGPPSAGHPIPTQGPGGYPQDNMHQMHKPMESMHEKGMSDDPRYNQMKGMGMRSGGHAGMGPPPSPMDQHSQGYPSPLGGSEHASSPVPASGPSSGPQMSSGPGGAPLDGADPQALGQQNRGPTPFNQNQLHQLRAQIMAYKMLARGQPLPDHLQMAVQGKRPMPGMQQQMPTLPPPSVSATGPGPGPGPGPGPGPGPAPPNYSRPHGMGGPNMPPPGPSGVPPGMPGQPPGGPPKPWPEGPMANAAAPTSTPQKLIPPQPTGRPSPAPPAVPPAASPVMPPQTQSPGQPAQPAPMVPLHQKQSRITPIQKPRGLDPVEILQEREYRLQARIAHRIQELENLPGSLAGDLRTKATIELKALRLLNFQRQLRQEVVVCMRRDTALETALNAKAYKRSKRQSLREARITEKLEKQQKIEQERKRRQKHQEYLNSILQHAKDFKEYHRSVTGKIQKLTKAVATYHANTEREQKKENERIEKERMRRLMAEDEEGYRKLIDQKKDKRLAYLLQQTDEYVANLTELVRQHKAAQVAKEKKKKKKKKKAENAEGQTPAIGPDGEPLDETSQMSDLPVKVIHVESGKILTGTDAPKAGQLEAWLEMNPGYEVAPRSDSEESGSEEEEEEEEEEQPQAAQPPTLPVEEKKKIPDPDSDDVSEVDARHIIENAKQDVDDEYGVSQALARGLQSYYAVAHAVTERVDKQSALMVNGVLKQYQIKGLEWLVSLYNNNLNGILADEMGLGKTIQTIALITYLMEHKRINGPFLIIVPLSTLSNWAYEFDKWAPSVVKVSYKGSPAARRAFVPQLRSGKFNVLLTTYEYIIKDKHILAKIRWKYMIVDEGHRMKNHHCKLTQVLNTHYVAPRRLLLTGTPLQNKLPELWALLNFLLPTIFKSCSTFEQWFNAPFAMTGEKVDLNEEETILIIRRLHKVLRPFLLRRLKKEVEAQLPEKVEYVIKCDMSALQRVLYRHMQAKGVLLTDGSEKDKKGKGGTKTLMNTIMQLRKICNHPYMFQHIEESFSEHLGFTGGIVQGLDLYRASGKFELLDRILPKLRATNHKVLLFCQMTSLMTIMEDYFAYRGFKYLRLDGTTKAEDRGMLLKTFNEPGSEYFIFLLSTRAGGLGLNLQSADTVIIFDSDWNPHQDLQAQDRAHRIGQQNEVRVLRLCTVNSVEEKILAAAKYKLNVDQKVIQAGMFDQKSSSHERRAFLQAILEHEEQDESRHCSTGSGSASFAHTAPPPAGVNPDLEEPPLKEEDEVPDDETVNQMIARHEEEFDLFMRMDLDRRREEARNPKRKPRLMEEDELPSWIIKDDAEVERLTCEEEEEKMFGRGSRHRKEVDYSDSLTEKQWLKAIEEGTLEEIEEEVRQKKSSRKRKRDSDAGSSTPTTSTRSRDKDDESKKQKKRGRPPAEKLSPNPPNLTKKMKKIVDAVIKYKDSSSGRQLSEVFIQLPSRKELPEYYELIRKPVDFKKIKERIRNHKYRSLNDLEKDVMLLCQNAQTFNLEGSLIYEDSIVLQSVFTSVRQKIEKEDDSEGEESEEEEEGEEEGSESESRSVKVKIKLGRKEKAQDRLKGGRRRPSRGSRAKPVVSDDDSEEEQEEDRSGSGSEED
Method: 130,000–200,000 cells were seeded in 24-well plates and incubated until settled down or overnight. Compounds were dissolved in DMSO and added to cells in indicated concentrations using a digital dispenser following an optional media change. Cells were incubated for 4 or 18 h as indicated. For SMARCA2/4 half-life determination, 150,000 or 200,000 cells were seeded in 24-well plates. The next day, 50 µg/ml cycloheximide (Sigma) was added and cells were incubated for 1–24 h. For SMARCA2/4 re-synthesis measurements, 200,000 cells were seeded in 24-well plates. The next day, 100 nM compound 6 was added for 4 h to degrade SMARCA2/4, and a sample was taken as baseline for normalisation. To allow re-synthesis, a VHL binder (compound 32, 25 or 50 µM) was then added for 3 or 24 h. Medium was removed, cells were washed with PBS and lysed with 80 µl Lysis Buffer (MSD Tris Lysis Buffer (#R60TX-2) + Halt Inhibitor Cocktail (100x) + Benzonase 0.5 µL/ml). Samples were frozen at −80 °C and thawed at room temperature before use. Samples were transferred to a V-bottom plate and insoluble debris was pelleted by centrifugation for 5 min at maximum speed. The supernatant was transferred to a fresh plate. Master Mix and Ladder were prepared according to manufacturer’s instructions for 12–230 kDa Wes Separation Module, 8 × 25 capillary cartridges, Protein Simple #SM-W004 with Anti-Rabbit Detection Module for Wes, Peggy Sue or Sally Sue, Protein Simple #DM-001. 4.8 µl lysate were mixed with 1.2 µl Master Mix to achieve a protein concentration of ~0.5 µg/µl. Antibodies were diluted in Antibody Diluent II (SMARCA2 Sigma #HPA029981 RRID:AB_10602406 1:25–100, SMARCA4 Cell Signalling #49360 clone D1Q7F RRID:AB_2728743 1:15–120 or Abcam #ab110641 clone EPNCIR111A RRID:AB_10861578 1:60, GAPDH Abcam #ab9485 RRID:AB_307275 1:250). Wes plates were prepared and run according to manufacturer’s instructions. Proteins were quantified with accompanying Compass Software. SMARCA2/4 protein levels were normalised to GAPDH. […] Where applicable, curves were fitted using a 4-parametric logistic model.

[2] = molecular target: T1, SMARCA4; experiment: Imaging-based SMARCA4 protein assay in RKO cells; assay type: cell-based; set-up: endogenous in cells; host or cells: RKO, HCT116, LU99, HCC-364, HCT-15, HCC4006, SK-N-AS; details: individual replicates
Method: (§1) 1250 cells per well in 60 µl medium were plated in flat bottom, poly-lysin coated 384-well plates (CellCarrier Ultra, Perkin Elmer). The next day, test compounds (10 µl of serial dilutions) and DMSO controls were diluted in DMEM medium such that the final DMSO content was <1% or were added using an ultrasound dispensing system. 4 wells were reserved for a background measurement. […] After aspirating the fixing solution, the cells were washed once with 25 µl PBS. 25 µl of blocking buffer (10% goat serum in PBS) was added and cells were incubated for 30 min, then washed once with PBS. Cells were stained with 20 µl of SMARCA2/4 primary antibody solution (Sigma #HPA029981 RRID:AB_10602406 1:1000 or Cell Signalling #52251 clone E9O6 RRID:AB_2799410 1:1000 in PBS with 10% FCS) for 2–4 h at room temperature. Cells were again washed once with PBS. […] The cell layer was then washed once with 25 µl PBS, the wells were filled with 25 µl PBS and the plates were sealed with an adhesive sheet. They were then imaged on the Opera Phoenix (mean intensity in the nucleus). Results were computed as percent of controls ((value of test compound − background)/(value of the negative control DMSO—background) multiplied by 100). EC50 values were computed using a 4-parametric logistic model.

[3] = molecular target: T2, (Homo sapiens, UniProt P51532); experiment: TR-FRET ternary complex affinity and cooperativity, SMARCA4; assay type: binding
T2 construct: P51532, residues 1448–1569 with additional N-terminal SM residues; GST (TEV site) (N); His6 (TEV site) (N, cleaved yes); made in house; host or cells: SMARCA4^BD: Escherichia coli BL21(DE3)
T2 sequence (P51532 1448-1569): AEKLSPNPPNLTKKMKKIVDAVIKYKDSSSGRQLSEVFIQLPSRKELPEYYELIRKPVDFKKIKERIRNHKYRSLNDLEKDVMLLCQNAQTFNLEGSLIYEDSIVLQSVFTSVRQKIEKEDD

[4] = molecular target: SMARCA2 (Homo sapiens, UniProt P51531); experiment: Imaging-based SMARCA2 protein assay in RKO cells; assay type: cell-based; set-up: endogenous in cells; host or cells: RKO, NCI-H1568, A549, HCT116, LU99, HCC-364, HCT-15, HCC4006, SK-N-AS; details: individual replicates
Chain of SMARCA2 (P51531 whole entry): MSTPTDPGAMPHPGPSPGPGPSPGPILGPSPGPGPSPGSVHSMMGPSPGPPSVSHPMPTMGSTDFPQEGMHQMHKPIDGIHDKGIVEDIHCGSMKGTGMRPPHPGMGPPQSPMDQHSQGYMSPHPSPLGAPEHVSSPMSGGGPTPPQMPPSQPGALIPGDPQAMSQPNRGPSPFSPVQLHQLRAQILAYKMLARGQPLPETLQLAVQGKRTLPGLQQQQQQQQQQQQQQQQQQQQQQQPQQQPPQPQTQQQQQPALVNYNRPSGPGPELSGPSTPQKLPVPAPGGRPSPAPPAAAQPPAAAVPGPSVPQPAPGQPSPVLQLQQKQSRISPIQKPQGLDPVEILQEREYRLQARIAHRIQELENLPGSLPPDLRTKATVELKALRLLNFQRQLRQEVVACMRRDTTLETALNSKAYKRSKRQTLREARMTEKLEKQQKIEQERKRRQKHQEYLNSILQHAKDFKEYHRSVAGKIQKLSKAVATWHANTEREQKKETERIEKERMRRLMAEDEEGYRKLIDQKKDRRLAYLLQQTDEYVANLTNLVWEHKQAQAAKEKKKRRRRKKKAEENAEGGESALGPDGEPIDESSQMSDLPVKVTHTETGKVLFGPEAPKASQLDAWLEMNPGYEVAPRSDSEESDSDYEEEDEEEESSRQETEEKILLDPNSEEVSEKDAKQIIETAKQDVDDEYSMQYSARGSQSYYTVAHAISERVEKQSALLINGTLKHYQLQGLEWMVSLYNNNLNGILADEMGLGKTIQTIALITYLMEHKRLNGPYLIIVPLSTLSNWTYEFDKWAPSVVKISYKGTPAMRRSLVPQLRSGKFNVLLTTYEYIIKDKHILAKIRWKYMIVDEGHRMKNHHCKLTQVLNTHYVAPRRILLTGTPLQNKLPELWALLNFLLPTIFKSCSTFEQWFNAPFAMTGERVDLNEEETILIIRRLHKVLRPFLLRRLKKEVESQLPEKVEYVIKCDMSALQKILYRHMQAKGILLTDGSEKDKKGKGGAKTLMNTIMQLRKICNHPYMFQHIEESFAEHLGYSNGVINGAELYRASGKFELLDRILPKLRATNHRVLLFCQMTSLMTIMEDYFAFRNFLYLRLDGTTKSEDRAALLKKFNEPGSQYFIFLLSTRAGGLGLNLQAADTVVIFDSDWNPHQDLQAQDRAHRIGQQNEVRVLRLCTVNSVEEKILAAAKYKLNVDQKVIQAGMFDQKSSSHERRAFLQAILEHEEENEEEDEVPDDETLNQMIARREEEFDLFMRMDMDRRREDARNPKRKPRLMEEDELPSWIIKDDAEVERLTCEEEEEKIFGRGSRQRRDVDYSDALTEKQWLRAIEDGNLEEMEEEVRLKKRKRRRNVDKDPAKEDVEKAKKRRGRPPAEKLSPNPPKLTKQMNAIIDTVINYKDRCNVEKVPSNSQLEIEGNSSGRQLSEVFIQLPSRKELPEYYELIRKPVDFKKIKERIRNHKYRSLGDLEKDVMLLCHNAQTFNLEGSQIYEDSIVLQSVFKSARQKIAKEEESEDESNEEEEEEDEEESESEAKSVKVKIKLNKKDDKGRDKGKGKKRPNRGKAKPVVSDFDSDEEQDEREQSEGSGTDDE
Method: as §1, with “Cells were stained with 20 µl of SMARCA2/4 primary antibody solution (Sigma #HPA029981 RRID:AB_10602406 1:1000 or Cell Signalling #52251 clone E9O6 RRID:AB_2799410 1:1000 in PBS with 10% FCS) for 2–4 h at room temperature.” left out, “Results were computed as percent of controls ((value of test compound − background)/(value of the negative control DMSO—background) multiplied by 100).” left out

[5] = 4h, read-out: RKO (4h) SMARCA4 DC50
[6] = 18h, read-out: RKO (18h) SMARCA4 DC50
[7] = TR-FRET competition for SMARCA4BD, without VCB, mean ± SD, read-out: TR-FRET SMARCA4BD EC50
[8] = binary, PROTAC alone, individual replicates, read-out: SMARCA4 BD EC50
[9] = 4h, read-out: RKO (4h) SMARCA2 DC50
[10] = 18h, read-out: RKO (18h) SMARCA2 DC50

| SMILES | DC50 ([1]; RKO (4 h)) [nM] | DC50 ([1]; RKO (18 h)) [nM] | DC50 [2, 5] | DC50 [2, 6] | EC50 [3, 7] [nM] | EC50 [3, 8] | DC50 [4, 9] | DC50 [4, 10] | SMARCA4 Dmax ([1]; RKO (18 h)) [%] | SMARCA4 Dmax ([1]; RKO (4 h)) [%] | Dmax ([1]; RKO (4 h)) [%] | Dmax ([1]; RKO (18 h)) [%] |
| --- | --- | --- | --- | --- | --- | --- | --- | --- | --- | --- | --- | --- |
| O=c1nc2n(C3CCCC3)c3ccccc3n2c2cccc(Br)c12 [compound 1] | > 25000 | > 25000 | > 25000 nM | > 25000 nM | 857 ± 64 | 800 nM and 849 nM and 927 nM | > 25000 nM | > 25000 nM |  |  |  |  |
| Cc1ncsc1-c1ccc([C@H](COC(C)(C)CN2CCC(c3ccc4c(c3)n(C3CCCC3)c3nc(=O)c5c(Br)cccc5n43)CC2)NC(=O)[C@@H]2C[C@@H](O)CN2C(=O)[C@@H](NC(=O)C2(F)CC2)C(C)(C)C)cc1 [compound 28] | > 25000 | 159 ± 57 |  | 101 nM and 200 nM (2×) and > 833 nM | 240 ± 55 | 300 nM and 283 nM and 195 nM and 201 nM | 14.7 nM and 15 nM and 30.1 nM and 11.8 nM | 3.23 nM and 5.17 nM and 7.73 nM and 5.43 nM | 14 ± 42 |  |  |  |
| CN1CCN(c2nc(=O)c3c(F)cccc3o2)CC1 [compound 17] | > 25000 | > 25000 | > 25000 nM | > 25000 nM |  | > 10000 nM | > 25000 nM | > 25000 nM |  |  |  |  |
| Cc1ncsc1-c1ccc([C@H](COCCCN2CCC(c3ccc4c(c3)n(C3CCCC3)c3nc(=O)c5c(Br)cccc5n43)CC2)NC(=O)[C@@H]2C[C@@H](O)CN2C(=O)[C@@H](NC(=O)C2(F)CC2)C(C)(C)C)cc1 [compound 27] | 42 ± 3 | 29 ± 6 |  | 22.8 nM and 30.9 nM and 34.7 nM | 193 ± 15 | 183 nM and 211 nM and 185 nM and 209 nM and 173 nM and 200 nM | 5.2 nM and 2.76 nM and 5.65 nM and 7.65 nM | 1.7 nM and 2.99 nM and 2.34 nM | 83 ± 7 | 55 ± 2 |  |  |
| CN1CCN(c2nc(=O)c3c(Br)cccc3o2)CC1 [compound 15] | > 25000 | > 25000 | > 25000 nM | > 25000 nM |  | > 10000 nM | > 25000 nM | > 25000 nM |  |  |  |  |
| Cc1ncsc1-c1ccc(CNC(=O)[C@@H]2C[C@@H](O)CN2C(=O)[C@@H](NC(=O)C2(F)CC2)C(C)(C)C)c(OCCN2CCC(c3ccc4c(c3)n(C3CCCC3)c3nc(=O)c5c(Br)cccc5n43)CC2)c1 [compound 20] | > 25000 | > 25000 | > 25000 nM | > 25000 nM | 120 ± 17 | 101 nM and 114 nM and 130 nM and 140 nM | > 25000 nM |  |  |  |  |  |
| Cc1ncsc1-c1ccc([C@H](CCC(C)(C)CCN2CCC(c3ccc4c(c3)n(C3CCCC3)c3nc(=O)c5c(Br)cccc5n43)CC2)NC(=O)[C@@H]2C[C@@H](O)CN2C(=O)[C@@H](NC(=O)C2(F)CC2)C(C)(C)C)cc1 [compound 30] | > 25000 | 73 ± 35 | > 25000 nM |  |  | > 2000 nM and 564 nM and > 400 nM | 6.74 nM and 9.27 nM | 2.02 nM and 3.96 nM and 3.27 nM and 3.57 nM | 72 ± 7 |  |  |  |
| Cc1ncsc1-c1ccc([C@H](CCCCCN2CCC(c3ccc4c(c3)n(C3CCCC3)c3nc(=O)c5c(Br)cccc5n43)CC2)NC(=O)[C@@H]2C[C@@H](O)CN2C(=O)[C@@H](NC(=O)C2(F)CC2)C(C)(C)C)cc1 [compound 11] | 15 ± 9 | 12 ± 3 | 20 nM and 10.1 nM and 26.4 nM and 8.2 nM | 9.56 nM and 14.6 nM and 11.5 nM and 9.12 nM and 15.1 nM | 279 ± 40 | 241 nM and 322 nM and 280 nM | 1.71 nM and 0.766 nM and 2.04 nM and 3.68 nM | 0.942 nM and 1.07 nM and 0.993 nM and 0.885 nM |  |  | 53 ± 16 | 78 ± 11 |
| CN1CCN(c2nc(=O)c3c(I)cccc3o2)CC1 [compound 16] | > 25000 | > 25000 | > 25000 nM | > 25000 nM |  | > 10000 nM | > 25000 nM | > 25000 nM |  |  |  |  |
| Cc1ncsc1-c1ccc(CNC(=O)[C@@H]2C[C@@H](O)CN2C(=O)[C@@H](NC(=O)C2(F)CC2)C(C)(C)C)c(OCCOCCOCCN2CCC(c3ccc4c(c3)n(C3CCCC3)c3nc(=O)c5c(Br)cccc5n43)CC2)c1 [compound 21] | 21 ± 19 | 83 ± 78 | 22.9 nM and 45.5 nM and 8.98 nM | 42.3 nM and 189 nM and 70.5 nM | 520 ± 73 | 443 nM and 585 nM and 542 nM | > 25000 nM | 77.5 nM and 151 nM and 100 nM | 75 ± 3 | 61 ± 16 |  |  |
| CN1CCC(c2ccc3c(c2)n(C2CCCC2)c2nc(=O)c4c(Br)cccc4n32)CC1 [compound 3] | > 25000 | 11400 | > 25000 nM | 6980 nM and 15500 nM and 13600 nM | 107 ± 29 | 95.4 nM and 105 nM and 124 nM and 115 nM and 117 nM and 113 nM (3×) and 121 nM and 114 nM and 81.2 nM and 90.5 nM and 95.1 nM and 82.4 nM and 86.5 nM and 90.1 nM and 86 nM and 90.3 nM (2×) and 78 nM and 69.2 nM and 191 nM and 161 nM and 107 nM and 99.4 nM and 89 nM and 90.2 nM and 81.3 nM and 182 nM and 188 nM and 131 nM and 128 nM and 126 nM and 132 nM and 94.7 nM and 129 nM and 86.8 nM and 102 nM and 109 nM and 112 nM | > 25000 nM | 20000 nM and 24900 nM and 22400 nM |  |  |  | 82 ± 32 |
| Cc1ncsc1-c1ccc([C@H](CC[C@H](C)CCN2CCC(c3ccc4c(c3)n(C3CCCC3)c3nc(=O)c5c(Br)cccc5n43)CC2)NC(=O)[C@@H]2C[C@H](O)CN2C(=O)[C@@H](NC(=O)C2(F)CC2)C(C)(C)C)cc1 [compound 12] | > 25000 | 5830 | > 25000 nM | 4950 nM and 4740 nM and 8100 nM and 6070 nM | 347 ± 41 | > 400 nM and 339 nM and 302 nM | > 25000 nM | 10700 nM and 4780 nM and 8270 nM and > 25000 nM |  |  |  | 94 ± 7 |
| Cc1ncsc1-c1ccc(CNC(=O)[C@@H]2C[C@@H](O)CN2C(=O)[C@@H](NC(=O)C2(F)CC2)C(C)(C)C)c(OCCCCN2CCC(c3ccc4c(c3)n(C3CCCC3)c3nc(=O)c5c(Br)cccc5n43)CC2)c1 [compound 23] | > 25000 | 1260 |  |  | 174 ± 21 | 148 nM and 197 nM and 173 nM and 183 nM |  | 30 nM and 50 nM and 40 nM | 76 ± 30 |  |  |  |
